Assay [1] has as its target T1, Protein tyrosine phosphatase type IVA 1 (Homo sapiens, UniProt Q93096).
T1 sequence (Q93096 whole entry): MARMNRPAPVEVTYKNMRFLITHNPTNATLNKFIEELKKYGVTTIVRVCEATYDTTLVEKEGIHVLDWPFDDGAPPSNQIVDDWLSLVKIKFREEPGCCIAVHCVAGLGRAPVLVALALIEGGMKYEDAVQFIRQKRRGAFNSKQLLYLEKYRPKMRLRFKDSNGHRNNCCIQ
Briefly: Inhibition of PRL1 (unknown origin) using DiFMUP as fluorogenic phosphate substrate assessed as DiFMUP dephosphorylation.

The target of assay [2] is T2, Protein tyrosine phosphatase type IVA 2 (Homo sapiens, UniProt Q12974).
T2 sequence (Q12974 whole entry): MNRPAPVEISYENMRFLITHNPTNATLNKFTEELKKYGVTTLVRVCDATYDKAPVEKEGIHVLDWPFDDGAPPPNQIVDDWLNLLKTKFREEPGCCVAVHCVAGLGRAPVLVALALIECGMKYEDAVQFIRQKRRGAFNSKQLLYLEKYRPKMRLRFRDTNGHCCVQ
Put plainly: Inhibition of PRL2 (unknown origin) using DiFMUP as fluorogenic phosphate substrate assessed as DiFMUP dephosphorylation.

For assay [3], the target named is Protein tyrosine phosphatase type IVA 3 (Homo sapiens, UniProt O75365). Briefly: Inhibition of PRL3 (unknown origin) using DiFMUP as fluorogenic phosphate substrate assessed as DiFMUP dephosphorylation.

Molecules are shown by their SMILES.

Protein tyrosine phosphatase type IVA 3, sequence (O75365 whole entry): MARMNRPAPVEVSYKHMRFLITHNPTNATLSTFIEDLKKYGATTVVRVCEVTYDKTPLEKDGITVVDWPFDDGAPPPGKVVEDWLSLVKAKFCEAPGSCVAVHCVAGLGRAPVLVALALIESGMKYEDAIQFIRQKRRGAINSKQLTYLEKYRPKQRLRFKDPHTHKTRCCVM

Take `O=C1CSC(=S)N1` [CHEBI:8830]: the IC50 worked out at 35 µM in assay [1] and 188 µM in assay [2].

`O=C(O)c1ccc[n+]2c([O-])c(-c3ccccc3)sc12`: the IC50 in assay [1] is 209 µM; in assay [2], 188 µM; in assay [3], 102 µM.

In general, IC50 refers to the concentration that inhibits the measured activity by half.

The values above are taken from BindingDB's records for doi:10.1016/j.ejmech.2014.08.060 (European Molecular Biology Laboratory, 2014).
